Measurements published in patent US7811760B2, “Vector and method for detecting the change in transcription amount” (priority 2006, dated 2010).

Biological target: T1, aryl hydrocarbon receptor (Rattus norvegicus, UniProt P41738, Q794H)
T1 construct: The SD-line rat AhR gene-coding region was amplified from the reverse-transcribed sample by means of PCR; V5-His (C-terminal tag of vector pcDNA4/V5-His B); expressed in transfected cells; host or cells: mouse neuroblastoma Neuro2a, transient transfection with LIPOFECTAMINE 2000
T1 sequence (P41738 10-853 Q794H): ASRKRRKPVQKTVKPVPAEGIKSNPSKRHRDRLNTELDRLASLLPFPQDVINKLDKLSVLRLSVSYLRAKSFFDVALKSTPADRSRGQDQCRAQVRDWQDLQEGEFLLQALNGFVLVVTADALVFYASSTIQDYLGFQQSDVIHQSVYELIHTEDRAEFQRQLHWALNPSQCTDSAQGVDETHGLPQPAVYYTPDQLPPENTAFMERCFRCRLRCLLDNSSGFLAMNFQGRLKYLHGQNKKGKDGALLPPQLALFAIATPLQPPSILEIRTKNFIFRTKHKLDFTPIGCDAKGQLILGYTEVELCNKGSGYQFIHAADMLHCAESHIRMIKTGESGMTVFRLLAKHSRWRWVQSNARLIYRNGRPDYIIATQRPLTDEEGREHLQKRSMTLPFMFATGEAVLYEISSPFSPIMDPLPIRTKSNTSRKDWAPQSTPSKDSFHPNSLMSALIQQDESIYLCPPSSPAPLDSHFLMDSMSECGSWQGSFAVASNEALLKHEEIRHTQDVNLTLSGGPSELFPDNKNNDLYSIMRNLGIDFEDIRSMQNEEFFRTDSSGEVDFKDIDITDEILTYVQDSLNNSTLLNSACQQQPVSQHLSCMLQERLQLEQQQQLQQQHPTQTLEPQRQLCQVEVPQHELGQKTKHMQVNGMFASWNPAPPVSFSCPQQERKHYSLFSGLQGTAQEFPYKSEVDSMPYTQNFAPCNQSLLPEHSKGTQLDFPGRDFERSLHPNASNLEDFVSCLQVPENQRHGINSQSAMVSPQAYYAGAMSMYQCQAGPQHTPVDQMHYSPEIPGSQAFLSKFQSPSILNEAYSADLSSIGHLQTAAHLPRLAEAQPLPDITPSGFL
Test: Reporter gene assay in Neuro2a with vectors having TH transcriptional regulatory regions different in length
Type: cell-based, SD-line rat
Conditions: 10 nM TCDD
Method: Shorter fragments of TH transcriptional regulatory region (i.e., 2.0 kbp, 1.5 kbp, 1.0 kbp and 500 bp of fragments) were prepared by PCR using the 2.5 kbp of the TH transcriptional regulatory region incorporated into PGV-THp25 as a template. The following different forward primers were used for each fragment: 2.0-kbp fragment:
As the reverse primer, a common primer (5′-[…]-3′ (SEQ ID No: 17)) was used. Recognition sequence for a restriction enzyme KpnI was added to the terminal of each forward primer, and recognition sequence for a restriction enzyme NheI was added to the terminal of the reverse primer, in order to facilitate incorporation of the PCR amplification fragments into the vector. Pyrobest DNA polymerase (Takara Bio Inc.) was used in the PCR. The amplified TH transcriptional regulatory region fragments were digested with restriction enzymes KpnI and NheI, and subjected to electrophoresis on agarose. The corresponding bands were purified with a QIAQUICK Gel Extraction Kit (manufactured by Qiagen) and incorporated into PGV-B2 vector (TOYO B-NET) previously digested with KpnI and NheI.
These vectors were introduced into Neuro2a by a method similar to Example 3. The obtained cell was exposed to 10 nM TCDD, and the change in the expression amount of the reporter gene was examined in the cell (FIG. 3).
For narrowing down the region involved in transcriptional regulation by the test substance, shorter fragments of the transcriptional regulatory region (i.e., 400 bp, 300 bp, 200 bp and 100 bp of fragments) were prepared by PCR using the 500 bp of the TH transcriptional regulatory region as a template. The following forward primers were used for each fragment.
As the reverse primer, a common primer (5′-[…]-3′ (SEQ ID No: 17)) was used. Recognition sequence for a restriction enzyme KpnI was added to the terminal of each forward primer, and recognition sequence for a restriction enzyme NheI was added to the terminal of the reverse primer. The DNA fragments were amplified by using Pyrobest DNA polymerase (Takara Bio Inc.). […]

## Clc1cc2c(cc1Cl)Oc1cc(Cl)c(Cl)cc1O2 [TCDD, 2,3,7,8-tetrachlorodibenzo-p-dioxine]
All vectors with TH transcriptional regulatory regions of 2.5 kbp to 500 bp
  change in the expression amount of the reporter gene (response): there was a response to TCDD
Vectors with TH transcriptional regulatory region of 500 bp, 400 bp or 300 bp
  change in the expression amount of the reporter gene (response): there was a response to TCDD
Vectors with region of 200 bp or 100 bp
  change in the expression amount of the reporter gene (response): no response to TCDD
